Reference: paper PMC7459823, “Characterization of Five Novel Anti-MRSA Compounds Identified Using a Whole-Animal Caenorhabditis elegans/Galleria mellonella Sequential-Screening Approach” (Antibiotics, 2020)
≈ marks a conversion by molar mass, not a printed value. Read-outs that look alike come from different tables or passages of the source.

Columns and labels:
HepG2 = test: MTT cytotoxicity, HepG2; conditions: HepG2, 24 hr
Protocol: (§2) Mammalian cell lines HepG2 (hepatic cells), A549 (epithelial cells), and MKN-28 (gastric cells) were used to measure the anti-proliferative properties of test compounds, as described elsewhere [28]. Cells were grown in Dulbecco’s Modified Eagle Medium (DMEM) (Gibco, Waltham, MA, USA) supplemented with 10% Fetal Bovine Serum (FBS) (Gibco, Waltham, MA, USA) and 1% penicillin/streptomycin (Gibco, Waltham, MA, USA) and maintained at 37 °C in 5% CO2. After harvesting, the cells were suspended in DMEM and 100 µL was added to the wells of 96-well plates. The test compounds were serially diluted in serum and antibiotic free DMEM, added to the monolayer of cells, and incubated at 37 °C in 5% CO2 for 24 hr. Percentage survival was calculated by comparison to DMSO-treated vehicle controls. Assays were carried out in triplicate.

HVA currents = test system: HVA currents; set-up: method as in PMID 14718587; conditions: INS-1 cells; read-out: IC50 for inhibition of HVA currents; cited from earlier work
MKN-28 = test: MTT cytotoxicity, MKN-28; conditions: MKN-28, 24 hr
Protocol: as §2

MRSA MW2 [1] = test: Sytox green membrane permeabilization; assay type: cell-based, Staphylococcus aureus; conditions: compounds at 64 µg/mL, monitored over 1 h
Protocol: To determine whether the compounds target bacterial membranes, MRSA MW2 was treated with the compounds and uptake of the membrane-impermeable DNA-binding fluorescent dye Sytox green was monitored over 1 h (Figure 4).
Sytox Green (Life Technologies, Needham, MA, USA) membrane permeabilization assays were performed as previously described. The experiments were carried out in duplicate in 96-well plates. Cells were grown to log phase and were harvested by centrifuging at 3700× g for 5 min. The cells were washed twice with PBS and resuspended to OD600 = 0.2, following which 5 µM Sytox green was added to the cells and the bacteria-dye mixture were incubated in the dark for 30 mins.
Cell suspensions (50 µL) were added to 50 µL of test compounds (64 µg/mL in PBS) and fluorescence intensity was measured (excitation 485 nm, emission 530 nm) periodically over 60 min.

Pseudomonas aeruginosa = test: Broth microdilution MIC, Pseudomonas aeruginosa; assay type: cell-based
Protocol: (§1) In vitro antibacterial activities were determined using the broth microdilution method. Assays were performed as described in Clinical and Laboratory Standards Institute protocols in triplicate using cation-adjusted Muller–Hinton broth (Becton Dickinson and Company, Franklin Lakes, NJ, USA) in 96-well plates with a total assay volume of 100 µL. Two-fold serial dilutions of test compounds were prepared over the concentration range of 1–64 µg/mL. The bacterial concentration was adjusted to OD600 = 0.06. […] A 10 µL aliquot from each well in the MIC assays was plated onto Muller–Hinton agar (Becton Dickinson and Company, Franklin Lakes, NJ, USA) and incubated overnight at 37 °C. The lowest concentration of compound for which no growth was observed on agar plates was reported as the minimal bactericidal concentration (MBC).

Acinetobacter baumannii = test: Broth microdilution MIC, Acinetobacter baumannii; assay type: cell-based
Protocol: as §1

Cav3.1 T-type channels = test system: Cav3.1 T-type channels; set-up: method as in PMID 14718587; conditions: INS-1 cells; read-out: IC50 for inhibition of Cav3.1 T-type channels; cited from earlier work
A549 = test: MTT cytotoxicity, A549; conditions: A549, 24 hr
Protocol: as §2

[2] = test system: clinical S. aureus isolate BF2; test: Broth microdilution MIC, clinical S. aureus isolate BF2; assay type: cell-based; conditions: Staphylococcus aureus
Protocol: as §1

Klebsiella pneumoniae = test: Broth microdilution MIC, Klebsiella pneumoniae; assay type: cell-based
Protocol: as §1

Enterobactor aerogens = test: Broth microdilution MIC, Enterobactor aerogens; assay type: cell-based
Protocol: as §1

[3] = test system: clinical S. aureus isolate BF4; test: Broth microdilution MIC, clinical S. aureus isolate BF4; assay type: cell-based; conditions: Staphylococcus aureus
Protocol: as §1

[4] = test system: MRSA MW2 infection of Galleria mellonella larvae; test: G. mellonella–MRSA survival assay; assay type: in vivo; conditions: larvae infected with MRSA MW2 5 × 10^5 CFU, compound 10 mg/kg 2 h after infection, monitored 120 h; untreated 1 day
Protocol: Larvae were infected with MRSA MW2 (5 × 10^5 CFU) in the left rear proleg, and after two hours, the compounds were introduced separately at 10 mg/kg into the right rear proleg and larvae survival was monitored for 120 h.
Assays were performed as described previously. Briefly, sixteen randomly selected G. mellonella larvae (Vanderhorst, Inc., St. Mary’s, OH, USA) between 300–350 mg were used for each test group. MRSA-MW2 was grown in Tryptic Soy Broth (TSB), washed with phosphate buffered saline (PBS, pH = 7.4), and diluted to OD600 = 0.3 before inoculation into G. mellonella larvae. A 10-μL inoculum was injected into the last left proleg using a 10-μL Hamilton syringe. After 2 h, compounds were administered into the last right proleg and larvae were incubated at 37 °C. G.mellonella survival was monitored for 120 h, and death was confirmed when there was no response. Killing curves and differences in survival were analyzed by the Kaplan–Meier method using GraphPad Prism version 8 (GraphPad Software, La Jolla, CA, USA). Statistical analysis (Kruskal–Wallis test) was carried out using the same program.

[5] = test system: clinical S. aureus isolate BF1; test: Broth microdilution MIC, clinical S. aureus isolate BF1; assay type: cell-based; conditions: Staphylococcus aureus
Protocol: as §1

MRSA MW2 [6] = test: Broth microdilution antibacterial susceptibility (MIC/MBC), MRSA MW2; assay type: cell-based, Staphylococcus aureus
Protocol: as §1

MRSA-MW2 = test: Checkerboard synergy assay (FIC index); assay type: cell-based, Staphylococcus aureus; conditions: synergy FIC ≤ 0.5
Protocol: The combination of two antibiotics with different modes of action can reduce bacterial resistance and sometimes even restore clinical efficacy of an antibiotic that has lost effectiveness. The five compounds were tested against MRSA-MW2 in the presence of five clinical antibiotics from different classes (i.e., polymyxin B, gentamycin, erythromycin, doxycycline, and oxacillin).
Antibacterial synergy for combinations of the compounds with each other and with clinical antibiotics (doxycycline, gentamicin, polymyxin-B, oxacillin, and erythromycin) was measured using checkerboard assays. In short, Cultures of MRSA-MW2 were adjusted to OD600 = 0.06 and one compound was arrayed horizontally and other vertically in 96 well plates. The assays were carried out in triplicate, exactly as described for the antibacterial susceptibility assays. The inhibitory effects of compound combinations were evaluated using the Fractional Inhibitory Concentration (FIC) index, derived from the formula:FIC index = FICA + FICB = [A]/MICA + [B]/MICB
MIC of substance A tested in combination /MIC of substance A tested alone + MIC of substance B tested in combination/MIC of substance B tested alone. Synergy is indicated when FIC ≤ 0.5, indifference when 0.5 ≤ FIC ≤ 4, and antagonism when FIC > 4. Experiments were performed in duplicate and report the average FIC index.

Enterococcus faecium = test: Broth microdilution MIC, Enterococcus faecium; assay type: cell-based
Protocol: as §1

[7] = test system: clinical S. aureus isolate BF3; test: Broth microdilution MIC, clinical S. aureus isolate BF3; assay type: cell-based; conditions: Staphylococcus aureus
Protocol: as §1

[8] = test system: MRSA-MW2 infection of C. elegans; test: C. elegans–MRSA-MW2 high-throughput screen (Z-score, alive versus dead worms); assay type: in vivo, Caenorhabditis elegans; conditions: screening concentration 2.86 µg/mL, hits Z > 2
From the text: The five compounds: (4,4′,4″-(4-propyl-[1H]-pyrazole-1,3,5-triyl)trisphenol, PPT; (1S,2S)-2-[2-[[3-(1H-benzimidazol-2-yl)propyl]methylamino]ethyl]-6-fluoro-1,2,3,4-tetrahydro-1-(1-methylethyl)-2- naphthalenyl cyclopropanecarboxylate dihydrochloride, NNC; 4,5,6,7-tetrabromobenzotriazole, TBB; 3-[2-[2-chloro-4-[3-(2,6-dichlorophenyl)-5-(1-methylethyl)-4-isoxazolyl]methoxy]phenyl] ethenyl] benzoic acid, GW4064; and N-(cyclopropylmethoxy)-3,4,5-trifluoro-2-[(4-iodo-2-methylphenyl)amino] benzamide, PD198306) were purchased from Tocris Bioscience at the following levels of purity: PPT: >99.7%, NNC: >98%, TBB: >99%, GW4064: >97%, and PD198306: 98.8%. […] Hits were identified based on Z-scores. Z-scores are calculated from the ratio of alive versus dead worms after treatment with test compounds and represents the number of standard deviations (SD) the test compound differs from the mean using the formula Z = (x − μ)/σ; where x is the raw sample score, μ is the mean of the population and σ is the standard deviation of the population. Samples with Z > 2σ are considered hits.

[9] = Enterobactor aerogens, read-out: MIC
[10] = Staphylococcus aureus, MRSA MW2, 18 h, 37 °C, read-out: MIC
[11] = Staphylococcus aureus, MRSA MW2, read-out: MBC
[12] = Staphylococcus aureus, stated in text across MRSA MW2 and four clinical S. aureus isolates, read-out: MIC against MRSA MW2 and the clinical isolates

Structure (SMILES) | Eukaryotic cell cytotoxicity (HepG2) [µg/mL] | Eukaryotic cell cytotoxicity (MKN-28) [µg/mL] | cellular fluorescence (Sytox green uptake) (MRSA MW2 [1]) | MIC (Pseudomonas aeruginosa; read-out: MIC) [µg/mL] | MIC (Acinetobacter baumannii; read-out: MIC) [µg/mL] | Eukaryotic cell cytotoxicity (A549) [µg/mL] | MIC ([2]; BF2, read-out: MIC) [µg/mL] | MIC (Klebsiella pneumoniae; read-out: MIC) [µg/mL] | MIC (Enterobactor aerogens; [9]) [µg/mL] | MIC ([3]; BF4, read-out: MIC) [µg/mL] | median post-infection survival [4] [days] | MIC ([5]; BF1, read-out: MIC) [µg/mL] | MIC (MRSA MW2 [6]; [10]) [µg/mL] | MBC (MRSA MW2 [6]; [11]) [µg/mL] | Fractional Inhibitory Concentration (FIC) Index (MRSA-MW2; with Doxycycline) | Fractional Inhibitory Concentration (FIC) Index (MRSA-MW2; with Erythromycin) | Fractional Inhibitory Concentration (FIC) Index (MRSA-MW2; with Gentamycin) | Fractional Inhibitory Concentration (FIC) Index (MRSA-MW2; with Oxacillin) | Fractional Inhibitory Concentration (FIC) Index (MRSA-MW2; with Polymyxin B) | MIC (Enterococcus faecium; read-out: MIC) [µg/mL] | other results
CC(C)[C@H]1c2ccc(F)cc2CC[C@@]1(CCN(C)CCCc1nc2ccccc2[nH]1)OC(=O)C1CC1.Cl.Cl [NNC, (1S,2S)-2-[2-[[3-(1H-Benzimidazol-2-yl)propyl]methylamino]ethyl]-6-fluoro-1,2,3,4-tetrahydro-1-(1-methylethyl)-2-naphthalenyl cyclopropanecarboxylate dihydrochloride] | 2 | 8 | increases in cellular fluorescence | > 64 | > 64 | 16 | 2 | > 64 | > 64 | 4 | 2 | 4 | 8 | > 64 | 0.75 | 1.0 | 0.75 | 2.0 | 0.5 | 8 | IC50 (HVA currents): > 100 µM; IC50 (Cav3.1 T-type channels): 6.8 µM; MBC (MRSA MW2 [6]; MRSA MW2): >64 µg/mL; MIC ([7]; BF3, read-out: MIC): 4 µg/mL; Z-Score [8]: 5.83
CN[C@H](CC(C)C)C(=O)N[C@H]1C(=O)N[C@@H](CC(N)=O)C(=O)N[C@H]2C(=O)N[C@H]3C(=O)N[C@H](C(=O)N[C@H](C(=O)O)c4cc(O)cc(O)c4-c4cc3ccc4O)[C@H](O)c3ccc(c(Cl)c3)Oc3cc2cc(c3O[C@@H]2O[C@H](CO)[C@@H](O)[C@H](O)[C@H]2O[C@H]2C[C@](C)(N)[C@H](O)[C@H](C)O2)Oc2ccc(cc2Cl)[C@H]1O [Vancomycin] |  |  |  |  |  |  |  |  |  |  |  |  |  |  |  |  |  |  |  |  | MIC (Pseudomonas aeruginosa): > 64 µg/mL; MIC (Acinetobacter baumannii): > 64 µg/mL; MIC [2]: 2 µg/mL (≈ 1.38 µM); MIC (Klebsiella pneumoniae): > 64 µg/mL; MIC (Enterobactor aerogens): > 64 µg/mL; MIC [3]: 2 µg/mL (≈ 1.38 µM); MIC [5]: 2 µg/mL (≈ 1.38 µM); MBC (MRSA MW2 [6]; Staphylococcus aureus, MRSA): 8 µg/mL (≈ 5.52 µM); MIC (MRSA MW2 [6]; Staphylococcus aureus, MRSA, 18 h): 1 µg/mL (≈ 0.69 µM); MIC (Enterococcus faecium): 4 µg/mL (≈ 2.76 µM); MIC [7]: 2 µg/mL (≈ 1.38 µM)
CC(C)c1onc(-c2c(Cl)cccc2Cl)c1COc1ccc(C=Cc2cccc(C(=O)O)c2)c(Cl)c1 [GW4064, 3-[2-[2-Chloro-4-[[3-(2,6-dichlorophenyl)-5-(1-methylethyl)-4-isoxazolyl]methoxy]phenyl]ethenyl]benzoic acid] | 4 | 8 | no changes in cellular fluorescence | > 64 | > 64 | 16 | 4 (≈ 7.37 µM) | > 64 | > 64 | 8 (≈ 14.7 µM) | 2 | 4 (≈ 7.37 µM) | 8 (≈ 14.7 µM) | > 64 | 2.06 | 1.0 | 0.5 | 1.0 | 0.75 | 8 (≈ 14.7 µM) | MBC (MRSA MW2 [6]; MRSA MW2): >64 µg/mL; MIC (MRSA MW2 [6]; [12]): 4 to 8 µg/mL (≈ 7.37 to 14.7 µM); MIC ([7]; BF3, read-out: MIC): 8 µg/mL (≈ 14.7 µM); Z-Score [8]: 3.28
CCCc1c(-c2ccc(O)cc2)nn(-c2ccc(O)cc2)c1-c1ccc(O)cc1 [PPT, 4,4′,4″-(4-Propyl-[1H]-pyrazole-1,3,5-triyl)trisphenol] | 8 | 8 | increases in cellular fluorescence | > 64 | > 64 | 16 | 8 (≈ 20.7 µM) | > 64 | > 64 | 8 (≈ 20.7 µM) | 2 | 8 (≈ 20.7 µM) | 8 (≈ 20.7 µM) | 32 (≈ 82.8 µM) | 0.5 | 0.75 | 1.0 | 1.0 | 2.0 | 8 (≈ 20.7 µM) | MIC (MRSA MW2 [6]; [12]): 8 µg/mL (≈ 20.7 µM); MIC ([7]; BF3, read-out: MIC): 8 µg/mL (≈ 20.7 µM); Z-Score [8]: 5.54
